Test results taken from patent US20080188502A1, “New Compounds I” (AstraZeneca AB, priority 2006, published 2008).
Where a name gives a salt, the structure may show the parent alone.

target: T1, recombinant human GSK3β (Homo sapiens, UniProt P49841); test: GSK3β Scintillation Proximity Assay (ATP competition); format: biochemical; details: inhibition constants calculated with Km of ATP for GSK3β of 20 μM; 1 μM ATP, 1 μM biotinylated peptide substrate
T1 construct: purchased Dundee University, UK
Description: Determination of ATP Competition in Scintillation Proximity GSK3β Assay.
GSK3β Scintillation Proximity Assay.
The competition experiments were carried out in duplicate with 10 different concentrations of the inhibitors in clear-bottom microtiter plates (Wallac, Finland). A biotinylated peptide substrate, Biotin-Ala-Ala-Glu-Glu-Leu-Asp-Ser-Arg-Ala-Gly-Ser(PO3H2)-Pro-Gln-Leu (AstraZeneca, Lund), was added at a final concentration of 1 μM in an assay buffer containing 1 mU recombinant human GSK3β (Dundee University, UK), 12 mM morpholinepropanesulfonic acid (MOPS), pH 7.0, 0.3 mM EDTA, 0.01% β-mercaptoethanol, 0.004% Brij 35 (a […] detergent), 0.5% glycerol and 0.5 μg BSA/25 μl. The reaction was initiated by the addition of 0.04 μCi [γ-^33P]ATP (Amersham, UK) and unlabelled ATP at a final concentration of 1 μM and assay volume of 25 μl. After incubation for 20 minutes at room temperature, each reaction was terminated by the addition of 25 μl stop solution containing 5 mM EDTA, 50 μM ATP, 0.1% Triton X-100 and 0.25 mg streptavidin coated Scintillation Proximity Assay (SPA) beads (Amersham, UK). After 6 hours the radioactivity was determined in a liquid scintillation counter (1450 MicroBeta Trilux, Wallac). The inhibition curves were analysed by non-linear regression using GraphPad Prism, USA. The Km value of ATP for GSK3β, used to calculate the inhibition constants (Ki) of the various compounds, was 20 μM.

T1 sequence (P49841 whole entry): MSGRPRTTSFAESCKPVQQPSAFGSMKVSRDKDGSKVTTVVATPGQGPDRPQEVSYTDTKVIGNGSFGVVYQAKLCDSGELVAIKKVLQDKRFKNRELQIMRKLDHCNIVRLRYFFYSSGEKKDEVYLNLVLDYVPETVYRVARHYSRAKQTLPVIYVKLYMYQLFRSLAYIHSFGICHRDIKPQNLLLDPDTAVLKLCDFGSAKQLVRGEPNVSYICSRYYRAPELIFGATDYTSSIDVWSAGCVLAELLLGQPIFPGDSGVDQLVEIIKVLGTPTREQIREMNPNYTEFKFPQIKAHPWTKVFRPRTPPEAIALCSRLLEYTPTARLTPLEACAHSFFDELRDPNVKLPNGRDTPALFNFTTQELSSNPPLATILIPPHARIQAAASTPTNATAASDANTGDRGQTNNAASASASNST

Cc1ncc(-c2nc(Nc3ccc(C(=O)N(C)CC(C)C)nc3)ncc2F)n1C1CCOCC1 [Example 31, 5-[[5-Fluoro-4-[2-methyl-3-(oxan-4-yl)imidazol-4-yl]pyrimidin-2-yl]amino]-N-methyl-N-(2-methylpropyl)pyridine-2-carboxamide] was tested. Which Ki did it give?
Its Ki is 12 nM.

Which Ki does the source give for Cc1ncc(-c2nc(Nc3ccc(C(=O)N4CCC(C)CC4)nc3)ncc2F)n1C1CCOCC1 [Example 27, [5-[[5-Fluoro-4-[2-methyl-3-(oxan-4-yl)imidazol-4-yl]pyrimidin-2-yl]amino]pyridin-2-yl]-(4-methyl-1-piperidyl)methanone] here?
The Ki was 28 nM.

How did the Ki turn out when Cc1ncc(-c2nc(Nc3ccc(C(=O)N4CCCCC4)nc3)ncc2F)n1C1CCOCC1 [Example 20, [5-[[5-Fluoro-4-[2-methyl-3-(oxan-4-yl)imidazol-4-yl]pyrimidin-2-yl]amino]pyridin-2-yl]-(1-piperidyl)methanone] was run?
Its Ki is 26 nM.

For Cc1ncc(-c2nc(Nc3ccc(C(=O)N(C(C)C)C(C)C)nc3)ncc2F)n1C1CCOCC1 [Example 22, 5-[[5-Fluoro-4-[2-methyl-3-(oxan-4-yl)imidazol-4-yl]pyrimidin-2-yl]amino]-N,N-dipropan-2-yl-pyridine-2-carboxamide], which Ki is on record?
Its Ki is 67 nM.

With Cc1ncc(-c2nc(Nc3ccc(C(=O)N4CCN(C)CC4)nc3)ncc2F)n1C1CCOCC1 [Example 4, 5-Fluoro-N-{6-[(4-methylpiperazin-1-yl)carbonyl]pyridin-3-yl}-4-[2-methyl-1-(tetrahydro-2H-pyran-4-yl)-1H-imidazol-5-yl]pyrimidin-2-amine] as the compound, how does the Ki read?
The Ki was 63 nM.

With Cc1ncc(-c2nc(Nc3ccc(C(=O)N4CCC(F)(F)CC4)nc3)ncc2F)n1C1CCOCC1 [Example 29, (4,4-Difluoro-1-piperidyl)-[5-[[5-fluoro-4-[2-methyl-3-(oxan-4-yl)imidazol-4-yl]pyrimidin-2-yl]amino]pyridin-2-yl]methanone] as the compound, how does the Ki read?
Its Ki is 34 nM.

Which Ki does the source give for CCN(CC)C(=O)c1ccc(Nc2ncc(F)c(-c3cnc(C)n3C3CCOCC3)n2)cn1 [Example 38, N,N-Diethyl-5-[[5-fluoro-4-[2-methyl-3-(oxan-4-yl)imidazol-4-yl]pyrimidin-2-yl]amino]pyridine-2-carboxamide] here?
Its Ki is 29 nM.

How did the Ki turn out when Cc1ncc(-c2nc(Nc3ccc(C(=O)N4CCN(C)CC4)cn3)ncc2F)n1C1CCOCC1 [Example 3, 5-Fluoro-N-{5-[(4-methylpiperazin-1-yl)carbonyl]pyridin-2-yl}-4-[2-methyl-1-(tetrahydro-2H-pyran-4-yl)-1H-imidazol-5-yl]pyrimidin-2-amine] was run?
The Ki was 661 nM.

How did the Ki turn out when Cc1ncc(-c2nc(Nc3ccc(S(C)(=O)=O)cn3)ncc2F)n1C1CCOCC1 [Example 1, 5-Fluoro-N-[5-(methylsulfonyl)pyridin-2-yl]-4-[2-methyl-1-(tetrahydro-2H-pyran-4-yl)-1H-imidazol-5-yl]pyrimidin-2-amine hydrochloride] was run?
The Ki was 468 nM.

For CCCN(C(=O)c1ccc(Nc2ncc(F)c(-c3cnc(C)n3C3CCOCC3)n2)cn1)C(C)CC (stereo not drawn) [Example 12, N-Butan-2-yl-5-[[5-fluoro-4-[2-methyl-3-(oxan-4-yl)imidazol-4-yl]pyrimidin-2-yl]amino]-N-propyl-pyridine-2-carboxamide], which Ki is on record?
Its Ki is 29 nM.

For Cn1c(-c2nc(Nc3cnc(C(=O)N4CCC4)c(Cl)c3)ncc2F)cnc1C(F)(F)F [Example 45, Azetidin-1-yl-[3-chloro-5-[[5-fluoro-4-[3-methyl-2-(trifluoromethyl)imidazol-4-yl]pyrimidin-2-yl]amino]pyridin-2-yl]methanone hydrochloride], which Ki is on record?
The Ki was 32 nM.

How did the Ki turn out when Cc1ncc(-c2nc(Nc3cnc(C(=O)N4CCCCC4)c(Cl)c3)ncc2F)n1C1CCOCC1 [Example 54, N-[5-Chloro-6-(piperidin-1-ylcarbonyl)pyridin-3-yl]-5-fluoro-4-[2-methyl-1-(tetrahydro-2H-pyran-4-yl)-1H-imidazol-5-yl]pyrimidin-2-amine hydrocholoride, hydrochloride] was run?
The Ki was 7 nM.

Cc1ncc(-c2nc(Nc3ccc(S(=O)(=O)N4CCN(C)CC4)nc3)ncc2F)n1C1CCOCC1 [Example 58, {5-Fluoro-4-[2-methyl-3-(tetrahydro-pyran-4-yl)-3H-imidazol-4-yl]-pyrimidin-2-yl}-[6-(4-methyl-piperazine-1-sulfonyl)-pyridin-3-yl]-amine] was tested. Which Ki did it give?
Its Ki is 30 nM.

With COc1ncc(Nc2ncc(F)c(-c3cnc(C)n3C3CCOCC3)n2)cn1 [Example 11, {5-Fluoro-4-[2-methyl-3-(tetrahydro-pyran-4-yl)-3H-imidazol-4-yl]-pyrimidin-2-yl}-(2-methoxy-pyrimidin-5-yl)-amine] as the compound, how does the Ki read?
Its Ki is 60 nM.

For CCCN(CC1CC1)C(=O)c1ccc(Nc2ncc(F)c(-c3cnc(C)n3C3CCOCC3)n2)cn1 [Example 35], which Ki is on record?
Its Ki is 20 nM.

With Cc1ncc(-c2nc(Nc3ccc(S(=O)(=O)NCC(F)(F)F)nc3)ncc2F)n1C1CCOCC1 [Example 52] as the compound, how does the Ki read?
Its Ki is 39 nM.

CN1CCN(C(=O)c2ncc(Nc3ncc(F)c(-c4cnc(C(F)(F)F)n4C)n3)cc2Cl)CC1 [Example 44, [3-Chloro-5-[[5-fluoro-4-[3-methyl-2-(trifluoromethyl)imidazol-4-yl]pyrimidin-2-yl]amino]pyridin-2-yl]-(4-methylpiperazin-1-yl)methanone] was tested. Which Ki did it give?
The Ki was 55 nM.

How did the Ki turn out when CCOc1ccc(Nc2ncc(F)c(-c3cnc(C)n3C3CCOCC3)n2)cn1 [Example 10, (6-Ethoxy-pyridin-3-yl)-{5-fluoro-4-[2-methyl-3-(tetrahydro-pyran-4-yl)-3H-imidazol-4-yl]-pyrimidin-2-yl}-amine] was run?
Its Ki is 45 nM.

How did the Ki turn out when Cc1ncc(-c2nc(Nc3ccc(C(=O)N4CCN(C(C)C)CC4)nc3)ncc2F)n1C1CCOCC1 [Example 21, [5-[[5-Fluoro-4-[2-methyl-3-(oxan-4-yl)imidazol-4-yl]pyrimidin-2-yl]amino]pyridin-2-yl]-(4-propan-2-ylpiperazin-1-yl)methanone] was run?
The Ki was 90 nM.

Cc1ncc(-c2nc(Nc3ccc(S(C)(=O)=O)nc3)ncc2F)n1C1CCOCC1 [Example 2, 5-Fluoro-N-[6-(methylsulfonyl)pyridin-3-yl]-4-[2-methyl-1-(tetrahydro-2H-pyran-4-yl)-1H-imidazol-5-yl]pyrimidin-2-amine] was tested. Which Ki did it give?
The Ki was 40 nM.

With Cc1ncc(-c2nc(Nc3ccc(C(=O)N4CCC4)nc3)ncc2F)n1C1CCOCC1 [Example 5, N-[6-(Azetidin-1-ylcarbonyl)pyridin-3-yl]-5-fluoro-4-[2-methyl-1-(tetrahydro-2H-pyran-4-yl)-1H-imidazol-5-yl]pyrimidin-2-amine] as the compound, how does the Ki read?
The Ki was 70 nM.

Which Ki does the source give for Cc1ncc(-c2nc(Nc3ccc(C(=O)N4CCN(Cc5ccccc5)CC4)nc3)ncc2F)n1C1CCOCC1 [Example 28, (4-Benzylpiperazin-1-yl)-[5-[[5-fluoro-4-[2-methyl-3-(oxan-4-yl)imidazol-4-yl]pyrimidin-2-yl]amino]pyridin-2-yl]methanone] here?
The Ki was 19 nM.

How did the Ki turn out when CCC(C)N1CCN(C(=O)c2ccc(Nc3ncc(F)c(-c4cnc(C)n4C4CCOCC4)n3)cn2)CC1 (stereo not drawn) [Example 34, (4-Butan-2-ylpiperazin-1-yl)-[5-[[5-fluoro-4-[2-methyl-3-(oxan-4-yl)imidazol-4-yl]pyrimidin-2-yl]amino]pyridin-2-yl]methanone] was run?
The Ki was 85 nM.

CCN(C)C(=O)c1ccc(Nc2ncc(F)c(-c3cnc(C)n3C3CCOCC3)n2)cn1 [Example 26, N-Ethyl-5-[[5-fluoro-4-[2-methyl-3-(oxan-4-yl)imidazol-4-yl]pyrimidin-2-yl]amino]-N-methyl-pyridine-2-carboxamide] was tested. Which Ki did it give?
The Ki was 31 nM.

For Cc1ncc(-c2nc(Nc3ccc(C(=O)N4CCN(c5ccc(F)cc5)CC4)nc3)ncc2F)n1C1CCOCC1 [Example 36, [5-[[5-Fluoro-4-[2-methyl-3-(oxan-4-yl)imidazol-4-yl]pyrimidin-2-yl]amino]pyridin-2-yl]-[4-(4-fluorophenyl)piperazin-1-yl]methanone], which Ki is on record?
The Ki was 10 nM.

For Cc1ncc(-c2nc(Nc3cnc(C(=O)N4CCCCC4)c(Cl)c3)ncc2F)n1C [Example 55, N-[5-Chloro-6-(piperidin-1-ylcarbonyl)pyridin-3-yl]-4-(1,2-dimethyl-1H-imidazol-5-yl)-5-fluoropyrimidin-2-amine hydrochloride], which Ki is on record?
The Ki was 18 nM.

Cc1ncc(-c2nc(Nc3ccc(S(=O)(=O)C(C)C)nc3)ncc2F)n1C1CCOCC1 [Example 50, {5-Fluoro-4-[2-methyl-3-(tetrahydro-pyran-4-yl)-3H-imidazol-4-yl]-pyrimidin-2-yl}-[6-(propan-2-ylsulfonyl)-pyridin-3-yl]-amine] was tested. Which Ki did it give?
Its Ki is 33 nM.

How did the Ki turn out when Cc1ncc(-c2nc(Nc3ccc(C(=O)N4C(C)CCCC4C)nc3)ncc2F)n1C1CCOCC1 (stereo not drawn) [Example 23, (2,6-Dimethyl-1-piperidyl)-[5-[[5-fluoro-4-[2-methyl-3-(oxan-4-yl)imidazol-4-yl]pyrimidin-2-yl]amino]pyridin-2-yl]methanone] was run?
Its Ki is 41 nM.

How did the Ki turn out when Cc1ncc(-c2nc(Nc3ccc(S(=O)(=O)N(C)C)nc3)ncc2F)n1C1CCOCC1 [Example 53] was run?
Its Ki is 20 nM.

With Cc1ncc(-c2nc(Nc3cnc(C(=O)N4CCC4)c(Cl)c3)ncc2F)n1C [Example 48, N-[6-(Azetidin-1-ylcarbonyl)-5-chloropyridin-3-yl]-4-(1,2-dimethyl-1H-imidazol-5-yl)-5-fluoropyrimidin-2-amine] as the compound, how does the Ki read?
Its Ki is 16 nM.
